ChEMBL document CHEMBL5331130, “Analysis of Structure-Activity Relationships of Novel Inhibitors of the Macrophage Infectivity Potentiator (Mip) Proteins of Neisseria meningitidis, Neisseria gonorrhoeae, and Burkholderia pseudomallei” (J Med Chem, 2023)
Active and inactive are the calls of the source. The calls are words filed in the database; no cut-off is given here.

What was measured:
[1] = Binding affinity to Burkholderia pseudomallei Mip measured after 1 hr by fluorescence polarization assay
[2] = system: Burkholderia pseudomallei; experiment: Inhibition of Burkholderia pseudomallei Mip PPIase activity assessed as remaining activity using Suc-ALPF-pNA substrate measured at 400 nM by protease coupled assay relative to control
[3] = system: Neisseria meningitidis; experiment: Inhibition of Neisseria meningitidis Mip PPIase activity assessed as remaining activity using Suc-ALPF-pNA substrate measured at 400 nM by protease coupled assay relative to control
[4] = system: Neisseria meningitidis; experiment: Inhibition of Neisseria meningitidis Mip NEIS0004 assessed as remaining activity using Suc-ALPF-pNA substrate measured at 400 nM by protease coupled assay relative to control
[5] = system: Burkholderia pseudomallei; experiment: Antimicrobial activity against Burkholderia pseudomallei K96243 infected in mouse RAW264.7 cells assessed as reduction in bacteria-induced cytotoxicity at 50 uM after 24 hrs by lactate dehydrogenase release assay relative to control; format: functional; design: scale not given: the % may be the effect or the level left
[6] = system: Neisseria meningitidis; experiment: Antimicrobial activity against Neisseria meningitidis infected in mouse RAW264.7 cells assessed as reduction in bacteria-induced cytotoxicity at 50 uM after 24 hrs by lactate dehydrogenase release assay relative to control; format: functional; design: scale not given: the % may be the effect or the level left
[7] = system: Neisseria gonorrhoeae; experiment: Antimicrobial activity against Neisseria gonorrhoeae infected in mouse RAW264.7 cells assessed as reduction in bacteria-induced cytotoxicity at 50 uM after 24 hrs by lactate dehydrogenase release assay relative to control; format: functional; design: scale not given: the % may be the effect or the level left

Row | SMILES | Ki ([1]; read-out: Ki) | Activity [2] | Activity [3] | Activity [4] | Activity [5] | Activity [6] | Activity [7] | Ki [1]
1 | CC(C)C[C@H](OC(=O)C1CCCCN1S(=O)(=O)Cc1ccccc1)C(=O)NCc1cccnc1 (mixture of isomers) | 15.8 nM | 17.4% | 22.1% | 3.4% | 93.2% | 36.9% | – | –
2 | O=C(NCc1cccnc1)C(CCc1ccccc1)COC(=O)[C@@H]1CCCCN1S(=O)(=O)Cc1ccccc1 (mixture of isomers) | 207 nM | 28.7% | 47% | 8.4% | 93.4% | 16.4% | 63.5% | –
3 | O=C(NCc1cccnc1)[C@H](Cc1ccccc1)OC(=O)[C@@H]1CCCCN1S(=O)(=O)c1ccccc1 | 122 nM | 7% | 10% | 6.7% | 72.5% | 41.5% | 64.6% | –
4 | O=C(NCc1cccnc1)[C@H](CCc1ccccc1)NC(=O)[C@@H]1CCCCN1S(=O)(=O)Cc1ccccc1 | 10.5 nM | 17.6% | 44.8% | 12.9% | 75.4% | 34.1% | 71.5% | –
5 | CC(C)C[C@H](NC(=O)[C@@H]1CCCCN1S(=O)(=O)Cc1ccc(F)cc1)C(=O)NCc1ccc[n+]([O-])c1 | 148 nM | 21% | 44.4% | 23.8% | 61.5% | 71.3% | 56.4% | –
6 | O=C(NCc1cccnc1)C(CCc1ccccc1)COC(=O)[C@H]1CCCCN1S(=O)(=O)Cc1ccccc1 (mixture of isomers) | – | 140% | 93.7% | 119% | 95.7% | 21.2% | – | Not Active
7 | O=C(NCc1cccnc1)[C@@H](NC(=O)[C@@H]1CCCCN1S(=O)(=O)Cc1ccccc1)c1ccc(F)cc1 | 73.2 nM | 11.3% | 63.5% | 27.2% | 78.5% | 22.6% | 28% | –
8 | O=C(NCc1cccnc1)[C@H](Cc1ccccc1)OC(=O)[C@H]1CCCCN1S(=O)(=O)c1ccccc1 | 42400 nM | 147% | 27.2% | 122% | 82.7% | 35.2% | 68.4% | –
9 | O=C(NCc1cccnc1)[C@H](CCc1ccccc1)COC(=O)[C@@H]1CCCCN1S(=O)(=O)Cc1ccccc1 | 3380 nM | 101% | 83.5% | 70% | 97.6% | 67.7% | 53.6% | –
10 | O=C(O[C@@H](Cc1ccccc1)C(=O)NCc1cccnc1)C1CCCCN1S(=O)(=O)Cc1ccccc1 (mixture of isomers) | 48.8 nM | 15.9% | 14% | 6.9% | 68.5% | 38.4% | 65.1% | –
11 | CC[C@H](C)[C@H](OC(=O)C1CCCCN1S(=O)(=O)Cc1ccccc1)C(=O)NCc1cccnc1 (mixture of isomers) | 3130 nM | 16.8% | 73.3% | 9.4% | 94.3% | 58% | 35.4% | –
12 | CC(C)[C@H](OC(=O)C1CCCCN1S(=O)(=O)Cc1ccccc1)C(=O)NCc1cccnc1 (mixture of isomers) | 1080 nM | 13.9% | 25.2% | 10.9% | 96.8% | 52.5% | 65.1% | –
13 | C#CCOc1ccc(C[C@H](NC(=O)[C@@H]2CCCCN2S(=O)(=O)Cc2ccc(F)cc2)C(=O)NCc2cccnc2)cc1 | 34.3 nM | 4.4% | 12.3% | 4.9% | 55.4% | 45.7% | 35.2% | –
14 | O=C(NCc1cccnc1)C(CCc1cccnc1)OC(=O)[C@@H]1CCCCN1S(=O)(=O)c1ccccc1 (mixture of isomers) | 4160 nM | 32.6% | 82% | 32.8% | 35.6% | 84.4% | 52% | –
15 | O=C(NCc1ccc[n+]([O-])c1)[C@H](Cc1ccc(F)cc1)NC(=O)[C@@H]1CCCCN1S(=O)(=O)Cc1ccc(F)cc1 | 1310 nM | 40.9% | 49.4% | 24% | 51.7% | 52.8% | 44.2% | –
16 | CC(C)C[C@H](OC(=O)[C@@H]1CCCCN1S(=O)(=O)Cc1ccccc1)C(=O)NCc1cccnc1 | 60.5 nM | 4.8% | 35.6% | 3.8% | 87.8% | 13% | 19.1% | –
17 | O=C(N[C@@H](Cc1ccccc1)C(=O)NCc1ccc[n+]([O-])c1)C1CCCCN1S(=O)(=O)Cc1ccccc1 (mixture of isomers) | 4450 nM | 51.9% | 66.7% | 45.5% | 46.2% | 76% | 45.4% | –
18 | COCCOc1cc(OCCOC)cc(C(=O)NCCOC(=O)[C@@H]2CCCCN2S(=O)(=O)Cc2ccccc2)c1 | 1060 nM | 52.3% | 85% | 88.9% | 71% | 19.6% | 21.5% | –
19 | CC(C)C[C@H](NC(=O)[C@@H]1CCCCN1S(=O)(=O)Cc1ccc(F)cc1)C(=O)NCc1cccnc1 | 45.6 nM | 5.8% | 23.6% | 4.2% | 46.8% | 56.2% | 61.7% | –
20 | O=C(NCc1cccnc1)[C@@H](Cc1ccccc1)OC(=O)[C@@H]1CCCCN1S(=O)(=O)c1ccccc1 | 41100 nM | 151% | 51.1% | 106% | 65.9% | 26% | 73.2% | –
21 | O=C(NCc1cccnc1)[C@@H](CCc1ccccc1)COC(=O)[C@@H]1CCCCN1S(=O)(=O)Cc1ccccc1 | 15.3 nM | 14.8% | 54% | 11.1% | 70.6% | 16% | 19.8% | –
22 | O=C(O[C@H](Cc1ccccc1)C(=O)NCc1cccnc1)[C@H]1CCCCN1S(=O)(=O)c1ccccc1 | – | 155% | 51.3% | 108% | 74.3% | 21% | 58.6% | Not Active
23 | O=C(NCc1cccnc1)[C@@H](CCc1ccccc1)NC(=O)[C@@H]1CCCCN1S(=O)(=O)Cc1ccccc1 | 320 nM | 23.4% | 83.7% | 39.9% | 88.7% | 69.9% | 41.9% | –
24 | O=C(NCc1cccnc1)[C@H](Cc1ccc(F)cc1)NC(=O)[C@@H]1CCCCN1S(=O)(=O)Cc1ccc(F)cc1 | 18.8 nM | 12.5% | 11.5% | 37.2% | 68% | 47.9% | 50.8% | –
25 | O=C(NCc1cccnc1)[C@@H](NC(=O)[C@@H]1CCCCN1S(=O)(=O)Cc1ccc(F)cc1)c1ccc(F)cc1 | 17 nM | 13.5% | 43.3% | 30.6% | 46.7% | 51.4% | 31.4% | –
26 | O=C(NCc1cccnc1)[C@H](Cc1ccccc1)NC(=O)[C@@H]1CCCCN1S(=O)(=O)Cc1ccccc1 | 34.7 nM | 23.7% | 27.3% | 8.5% | 63.4% | 25% | 40.9% | –
27 | C=CCOC(=O)[C@H](Cc1ccc(F)cc1)NC(=O)[C@@H]1CCCCN1S(=O)(=O)Cc1ccc(F)cc1 | – | inactive | inactive | inactive | – | – | – | Not Active
28 | O=C(NCc1cccnc1)[C@@H](Cc1ccccc1)NC(=O)[C@@H]1CCCCN1S(=O)(=O)Cc1ccccc1 | 626 nM | 21.5% | 87.9% | 45.4% | 30.4% | 60.8% | 70.6% | –
29 | O=C(NCCOC(=O)[C@@H]1CCCCN1S(=O)(=O)Cc1ccccc1)c1cccnc1 | 3960 nM | 50.3% | 52.2% | 61.9% | 68.9% | 41.1% | 27.1% | –
30 | CC(C)C[C@@H](OC(=O)[C@@H]1CCCCN1S(=O)(=O)Cc1ccccc1)C(=O)NCc1cccnc1 | 2520 nM | inactive | inactive | inactive | – | – | – | –
